According to US12685744B2, “Anti-fungal compositions and methods for using same” (The Research Foundation for The State University of New York, priority 2019, dated 2026):

Tests used:
[1] = test system: C. albicans strain SC5314 (Wild Type); assay: Growth of C. albicans with ManSIFG and 0.2M CaCl2, cell count by hemocytometer; assay type: cell-based, Candida albicans; conditions: 0.2M CaCl2 alone
Procedure: This signaling pathway is considered to regulate synthesis of chitin, an important carbohydrate which is part of the cell wall and septum, which is formed during cell division. C. albicans strain SC5314 (wild type) was cultured from frozen stock in Yeast Nitrogen Base media (YNB) with 2% glucose and grown overnight at 30° C. with shaking at 225 rpm. Cell concentration was determined by hemocytometer. […] […] (62.5 μg/ml) was added to test cultures but not to control cultures. The experiment was done in triplicates. The culture tubes were placed on a nutator inside a 30° C. incubator and grown for 24 hours. Time points were taken at 6, 12, and 24 hours. Cell concentration was monitored by hemocytometer at 6, 12, and 24-hour time points. Statistical analysis was done using two-tailed Student's t-Test.

[2] = test system: C. albicans wild type strain (SC5314); assay: Checkerboard synergy assay / MIC analysis, OD600; assay type: cell-based, Candida albicans
Procedure: (§1) The C. albicans wild type strain (SC5314) was cultured from frozen stock in Yeast Peptone Dextrose (YPD) and grown overnight at 30° C. with shaking at 225 rpm. Cell concentration was determined by hemocytometer and used to adjust the inoculum to 2×10^3 cells/ml in fresh YPD, which is 2× the desired final concentration. 50 ul of the inoculum was added to each well for a final culture volume of 100 ul. The final cell concentration was 1×10^3 cells/ml. The plate was sealed with plastic film and placed in a BioTek Synergy HT plate reader for 24 hours at 37° C. At each time point, the plate was shaken for 10 seconds prior to each OD600 reading.

[3] = test system: wildtype C. albicans strain SC5314; assay: Growth of C. albicans in YNB, cell count by hemocytometer; assay type: cell-based, Candida albicans
Procedure: (§2) The wildtype C. albicans strain SC5314 was cultured from frozen stock in Yeast Nitrogen Base (YNB) media with 2% glucose and grown overnight at 30° C. with shaking at 225 rpm as described previously (Chinnici et al., 2019). Cell concentration of the overnight culture was determined by hemocytometer. This was used to inoculate fresh cultures with a final starting concentration of 5×10^5 cells/ml in fresh YNB contain either no treatment (control) or various concentrations (31.25, 62.5, or 125 μg/ml) of the mannose disaccharide inhibitor. The cultures were run in duplicates and incubated at 30° C. on a nutator. Cell concentration was analyzed by counting on hemocytometer at 10, 14, 18, and 24-hour time points. Statistical analysis was done using two-tailed Student's t-Test.
as §2, with “previously.” for “previously (Chinnici et al., 2019).”, “62.5 μg/ml” for “various concentrations (31.25, 62.5, or 125 μg/ml)”, “D-Mannose.” for “the mannose disaccharide inhibitor.”

[4] = test system: Trychophyton rubrum (ATCC-MYA-4607); assay: MIC testing against toe nail fungus; assay type: cell-based, Trichophyton rubrum; conditions: various concentrations, SDB, 25° C., 6 days (FIG. 10)
Procedure: Effect […] on other fungal cells. Trichophyton rubrum is the fungal pathogen that causes onychomycosis or toe nail fungus. […] The experiment was performed in triplicates. […] A 50 ul inoculum was added to each well for a final culture volume of 100 ul. […] The plate was cultured for 6 days at 25° C. and then imaged using an iPhone camera.

[5] = test system: Candida glabrata (ATCC-2001) wild type strain; assay: Antifungal activity against C. glabrata; assay type: cell-based; conditions: FIG. 14
[6] = test system: Candida tropicalis (ATCC-750) wild type strain; assay: Antifungal activity against C. tropicalis; assay type: cell-based; conditions: FIG. 15
[7] = test system: C. albicans strain SC5314 (Wild Type); assay: Germ tube / hypha formation of C. albicans induced by 20% FBS, count by hemocytometer; assay type: cell-based, Candida albicans; conditions: 62.5 μg/ml, 37° C., significantly (FIG. 3)
[8] = test system: Candida parapsilosis (ATCC-22019) wild type strain; assay: Antifungal activity against C. parapsilosis; assay type: cell-based; conditions: at very low concentrations (FIG. 12)
Procedure: as §1, with “ManSIFG MIC analysis for Candida albicans and effects of CaCl2. A checkerboard synergy assay was used to test ManSIFG and CaCl2) each by themselves and in various combinations of each other. Drug concentrations to be tested were prepared 4× concentrated and dispensed into a sterile 96-well culture plate. 25 ul of each ManSIFG dilution was dispensed in each column, such that concentrations increased along the x-axis of the plate. 25 ul of each CaCl2 dilution was dispensed in each row, such that concentrations increased along the y-axis of the plate. The C.” for “The C.”
Effect of ManSIFG on additional Candida species. Other Candida species were tested. Candida parapsilosis (ATCC-22019) wild type strain was used. Methods are same as described above. […]

[9] = test system: Candida krusei, (ATCC-6258) wild type strain; assay: Antifungal activity against C. krusei; assay type: cell-based; conditions: even at very low concentrations (FIG. 13)

## [Ca+2].[Cl-].[Cl-] [CaCl2, Calcium chloride]
[1]; 12 hours (FIG. 4A)
  growth of C. albicans as compared to control cultures: significantly inhibit
[1]; 24 hours (FIG. 4B)
  growth of C. albicans as compared to control cultures: significantly inhibit
[2]; very high concentrations (FIG. 9)
  antifungal effect of CaCl2 by itself: has an antifungal effect

## O=C[C@@H](O)[C@@H](O)[C@H](O)[C@H](O)CO [D-Mannose, reference compound]
[3]; D-Mannose 62.5 μg/ml, 10, 14, 18 and 24-hour time points
  growth of C. albicans wild type as compared to control cultures: not inhibited

## OC[C@H]1O[C@H](SC[C@H]2CNC[C@@H](O)[C@@H]2O)[C@@H](O)[C@@H](O)[C@@H]1O [ManSIFG, (2R,3S,4S,5S,6R)-2-((((3S,4R,5R)-4,5-dihydroxypiperidin-3-yl)methyl)thio)-6-(hydroxymethyl)tetrahydro-2H-pyran-3,4,5-triol]
[4]
  inhibitory effect against Trychophoton rubrum: no inhibitory effect
[5]
  antifungal activity against Candida glabrata: has antifungal activity
[6]
  antifungal activity against Candida tropicalis: has antifungal activity
[7]; 12 hours
  formation of germ tubes as compared to control cultures: inhibited
[7]; 24 hours
  formation of germ tubes as compared to control cultures: inhibited
[3]; 62.5 μg/ml, 10 hours, significantly (FIG. 2)
  growth of C. albicans wild type as compared to control cultures: inhibited
[3]; 62.5 μg/ml, later time points (14, 18, 24 hours)
  growth of C. albicans, difference between control and inhibitor cultures: no significant difference
[8]
  antifungal activity against Candida parapsilosis: has antifungal activity
[2]; Candida albicans, SC5314, YPD, 37° C., 24 hours, OD600 (FIG. 7)
  MIC: 31.2 to 62.5 µg/mL
[2]; ManSIFG 7.81 μg/ml plus 100 mg/ml CaCl2 vs CaCl2 alone (FIG. 8)
  effect of addition of CaCl2 on antifungal activity of ManSIFG: improves the antifungal activity
[9]
  antifungal activity against Candida krucei: has antifungal activity
